Measured values published in patent US8420852B2, “Phospholipase A2 inhibitors and their use in treating neurological injury and disease” (The Regents of the University of California, priority 2007, dated 2013).
“Also recorded” adds a separate entry of the source.

What was measured:
C57BL/6 mice with EAE = details: C57BL/6 mouse strain, previously shown; cited from earlier work
[1] = system: SJL/J mice induced with EAE; assay: EAE model of multiple sclerosis, clinical score; format: in vivo, mouse

Structure (SMILES) | onset and progression of EAE (C57BL/6 mice with EAE) | clinical disability score at day 40 ([1]; treatment before onset from day 5/6, stopped day 27, vehicle 2.4) | clinical score at day 18 ([1]; treatment before onset from day 5/6, vehicle grade 2, 5-point scale) | clinical course of EAE vs vehicle control ([1]; treatment before onset of symptoms, from day 5/6 after immunization, daily for 3 weeks)
CCCCC/C=C\C/C=C\C/C=C\C/C=C\CCCC(=O)C(F)(F)F [AACOCF3, arachidonyltrifluoromethyketone] | markedly reduce the onset and progression of the disease |  |  | 
CCCCCCCCCCCCCCC(=O)C(=O)NCCCC(=O)O [AX006, 4-(2-oxohexadecanoyl)amino butyric acid] |  | 1.6 | 0.5 | significant during the first paralytic episode; also recorded: significant reduction of disease severity
